Columns and labels:
[1] = target: human activated kallikrein enzyme (Homo sapiens, UniProt P03952); experiment: Plasma kallikrein inhibition, fluorogenic PFR-AMC substrate, 500 pM activated kallikrein format; type: biochemical; settings: 500 pM activated kallikrein, 300 uM PFR-AMC, 30 min preincubation, 10 min reaction; read-out: Primary Dose Response Assay: Average EC50
Outline: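 High-enzyme format of the fluorogenic peptide assay, with EC50 taken from AMC signal: 500 pM activated kallikrein, 300 uM Pro-Phe-Arg-AMC, 30 min compound preincubation and 10 min reaction, all at room temperature, pH 7.5.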

plasma kallikrein = target: T1, plasma kallikrein (Homo sapiens, UniProt P03952); experiment: Neat human plasma assay, FXIIa contact pathway-activated, PFR-AMC substrate; type: biochemical; settings: citrated human plasma 78% final, 10 nM human FXIIa, 100 μM PFR-AMC; read-out: Human Plasma Assay: IC90
T1 construct: from tissue
Outline: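 Compound inhibition of plasma kallikrein measured as PFR-AMC (100 μM) cleavage rate over 5 min at room temperature in 78% citrated human plasma activated with 10 nM FXIIa (Tris pH 7.5 buffer). IC50/IC90 from 4-parameter fit of rate versus inhibitor concentration.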

human activated kallikrein enzyme, sequence (P03952 391-638 limits assumed): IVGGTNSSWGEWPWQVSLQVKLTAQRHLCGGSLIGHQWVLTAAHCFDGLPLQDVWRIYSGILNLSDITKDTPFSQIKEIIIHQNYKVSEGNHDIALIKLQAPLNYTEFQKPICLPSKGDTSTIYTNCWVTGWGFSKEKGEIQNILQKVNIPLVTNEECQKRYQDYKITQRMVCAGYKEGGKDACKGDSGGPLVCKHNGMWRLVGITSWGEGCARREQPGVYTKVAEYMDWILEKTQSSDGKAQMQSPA
human activated kallikrein enzyme, sequence (P03952 20-390 partner limits assumed): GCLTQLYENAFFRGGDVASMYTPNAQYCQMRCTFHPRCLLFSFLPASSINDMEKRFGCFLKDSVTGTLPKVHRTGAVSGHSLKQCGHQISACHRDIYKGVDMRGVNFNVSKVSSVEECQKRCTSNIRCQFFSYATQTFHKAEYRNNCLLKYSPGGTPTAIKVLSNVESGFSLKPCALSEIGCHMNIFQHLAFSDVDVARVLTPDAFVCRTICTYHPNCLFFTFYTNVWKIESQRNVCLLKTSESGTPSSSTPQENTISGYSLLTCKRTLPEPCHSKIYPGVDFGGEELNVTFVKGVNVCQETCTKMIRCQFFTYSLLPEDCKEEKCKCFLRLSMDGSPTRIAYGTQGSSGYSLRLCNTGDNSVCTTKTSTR
T1 sequence (P03952 391-638 limits assumed): as the sequence (P03952 391-638 limits assumed) above
T1 sequence (P03952 20-390 partner limits assumed): as the sequence (P03952 20-390 partner limits assumed) above

SMILES | EC50 [1] [nM] | IC90 (plasma kallikrein) [nM]
Cc1ccnc([C@H]2C[C@@H]2C(=O)Nc2cc(N(C)Cc3cn4cc(C5CC5)cc(N5CC(=O)N(CCO)C5=O)c4n3)cc(C3CC3)n2)n1 [Example I-637, (1S,2S)—N-(6-cyclopropyl-4-(((6-cyclopropyl-8-(3-(2-hydroxyethyl)-2,4-dioxoimidazolidin-1-yl)imidazo[1,2-a]pyridin-2-yl)methyl)(methyl)amino)pyridin-2-yl)-2-(4-methylpyrimidin-2-yl)cyclopropane-1-carboxamide] | < 1 | < 400
Cc1ccnc([C@H]2C[C@@H]2C(=O)Nc2cc(NCc3cn4cc(C5CC5)cc(N5CC(=O)N(C6COC6)C5=O)c4n3)ncn2)n1 [Example 378, (1S,2S)-N-(6-(((6-cyclopropyl-8-(3-(oxetan-3-yl)-2,4-dioxoimidazolidin-1-yl)imidazo[1,2-a]pyridin-2-yl)methyl)amino)pyrimidin-4-yl)-2-(4-methylpyrimidin-2-yl)cyclopropane-1-carboxamide] | < 1 | < 400
Cc1ccnc([C@H]2C[C@@H]2C(=O)Nc2nccc(NCc3cn4cc(C5CC5)cc(N5CC(=O)N(C)C5=O)c4n3)n2)n1 (racemic) [Example 520, rac-(1S*,2S*)-N-(4-(((6-cyclopropyl-8-(3-methyl-2,4-dioxoimidazolidin-1-yl)imidazo[1,2-a]pyridin-2-yl)methyl)amino)pyrimidin-2-yl)-2-(4-methylpyrimidin-2-yl)cyclopropane-1-carboxamide] | < 1 | < 400
COc1nc(NC(=O)[C@H]2C[C@@H]2c2nccc(C)n2)cc(N[C@H](C)c2cn3cc(C4CC4)cc(N4CC(=O)N(C)C4=O)c3n2)n1 [Example 407, (1S,2S)-N-(6-(((R)-1-(6-cyclopropyl-8-(3-methyl-2,4-dioxoimidazolidin-1-yl)imidazo[1,2-a]pyridin-2-yl)ethyl)amino)-2-methoxypyrimidin-4-yl)-2-(4-methylpyrimidin-2-yl)cyclopropane-1-carboxamide] | < 1 | 400 to 1500
Cc1ccnc([C@H]2C[C@@H]2C(=O)Nc2ncc(CO)c(NCc3cn4cc(C5CC5)cc(N5CC(=O)N(C)C5=O)c4n3)n2)n1 (racemic) [Example 627, rac-(1S*,2S*)—N-(4-(((6-cyclopropyl-8-(3-methyl-2,4-dioxoimidazolidin-1-yl)imidazo[1,2-a]pyridin-2-yl)methyl)amino)-5-(hydroxymethyl)pyrimidin-2-yl)-2-(4-methylpyrimidin-2-yl)cyclopropane-1-carboxamide] | < 1 | < 400
COc1cc(N2CC(=O)N(C)C2=O)c2nc([C@@H](C)Nc3cc(NC(=O)[C@H]4C[C@@H]4c4nccc(C)n4)ncn3)cn2c1 [Example 415, (1S,2S)-N-(6-(((R)-1-(6-methoxy-8-(3-methyl-2,4-dioxoimidazolidin-1-yl)imidazo[1,2-a]pyridin-2-yl)ethyl)amino)pyrimidin-4-yl)-2-(4-methylpyrimidin-2-yl)cyclopropane-1-carboxamide] | < 1 | < 400
Cc1ccnc([C@H]2C[C@@H]2C(=O)Nc2cc(NCc3cn4cc(C5CC5)cc(N5CC(=O)N(C6CC6)C5=O)c4n3)ncn2)n1 [Example 384, (1S,2S)-N-(6-(((6-cyclopropyl-8-(3-cyclopropyl-2,4-dioxoimidazolidin-1-yl)imidazo[1,2-a]pyridin-2-yl)methyl)amino)pyrimidin-4-yl)-2-(4-methylpyrimidin-2-yl)cyclopropane-1-carboxamide] | < 1 | < 400
Cc1ccnc([C@H]2C[C@@H]2C(=O)Nc2cc(N3C[C@@H](O)C[C@@H]3c3cn4cc(C5CC5)ccc4n3)ncn2)c1 (relative stereo) [Example 472, rac-(1S*,2S*)-N-(6-((2R,4S)-2-(6-cyclopropylimidazo[1,2-a]pyridin-2-yl)-4-hydroxypyrrolidin-1-yl)pyrimidin-4-yl)-2-(4-methylpyridin-2-yl)cyclopropane-1-carboxamide] | 1 to 10 | 1500 to 10000
Cc1ccnc([C@H]2C[C@@H]2C(=O)Nc2cc(OCc3cn4cc(C5CC5)cc(N5CC(=O)N(C)C5=O)c4n3)ncn2)n1 (single isomer, unassigned) [Example 30] | < 1 | < 400
Cc1ccnc([C@H]2C[C@@H]2C(=O)Nc2cc(N[C@H](C)c3cn4cc(C5CC5)cc(N5CC(=O)N(C)C5=O)c4n3)nc(C)n2)n1 (single isomer, unassigned) [Example 456] | < 1 | < 400
Cc1ccnc([C@H]2C[C@@H]2C(=O)Nc2cc(NCc3cn4cc(C5CC5)cc(N5CC(=O)N(CCO)C5=O)c4n3)ncn2)n1 [Example 464, (1S,2S)-N-(6-(((6-cyclopropyl-8-(3-(2-hydroxyethyl)-2,4-dioxoimidazolidin-1-yl)imidazo[1,2-a]pyridin-2-yl)methyl)amino)pyrimidin-4-yl)-2-(4-methylpyrimidin-2-yl)cyclopropane-1-carboxamide] | < 1 | < 400
O=C(Nc1cc(NCc2cn3cc(C4CC4)ccc3n2)ccn1)[C@@]1(F)C[C@@H]1c1cccc(Cl)c1 (racemic) [Example I-217, rac-(1S*,2S*)-2-(3-chlorophenyl)-N-(4-(((6-cyclopropylimidazo[1,2-a]pyridin-2-yl)methyl)amino)pyridin-2-yl)-1-fluorocyclopropane-1-carboxamide] | 1 to 10 | 10000 to 48000
O=C(Nc1cc(NCc2cn3cc(C4CC4)ccc3n2)ncn1)[C@H]1C[C@@H]1c1cc(Cl)ccn1 (single isomer, unassigned) [Example I-267, rac-(1S*,2S*)-2-(4-chloropyridin-2-yl)-N-(6-(((6-cyclopropylimidazo[1,2-a]pyridin-2-yl)methyl)amino)pyrimidin-4-yl)cyclopropane-1-carboxamide] | 1 to 10 | 10000 to 48000

Now from value to compound:

EC50 [1] [nM] | IC90 (plasma kallikrein) [nM] | SMILES
1 to 10 | 10000 to 48000 | O=C(Nc1cc(NCc2cn3cc(C4CC4)ccc3n2)cnn1)[C@H]1C[C@@H]1c1cccc(Cl)c1 (racemic) [Example 101, rac-(1S*,2S*)-2-(3-chlorophenyl)-N-(5-(((6-cyclopropylimidazo[1,2-a]pyridin-2-yl)methyl)amino)pyridazin-3-yl)cyclopropane-1-carboxamide]
< 1 | 1500 to 10000 | COC(=O)CCc1cc(C2CC2)cn2cc(CNc3ccnc(NC(=O)[C@H]4C[C@@H]4c4cccc(Cl)c4)c3)nc12 [Example I-239, methyl 3-(2-(((2-((1S,2S)-2-(3-chlorophenyl)cyclopropane-1-carboxamido)pyridin-4-yl)amino)methyl)-6-cyclopropylimidazo[1,2-a]pyridin-8-yl)propanoate]
< 1 | < 400 | CN1CC(c2cc(C3CC3)cn3cc(CNc4ccnc(NC(=O)[C@H]5C[C@@H]5c5cccc(Cl)c5)c4)nc23)C1 [Example 609, (1S,2S)-2-(3-chlorophenyl)-N-(4-(((6-cyclopropyl-8-(1-methylazetidin-3-yl)imidazo[1,2-a]pyridin-2-yl)methyl)amino)pyridin-2-yl)cyclopropane-1-carboxamide]
< 1 | < 400 | O=C(Nc1cc(NCc2cn3cc(C4CC4)cc(N4CCOC4=O)c3n2)ccn1)[C@H]1C[C@@H]1c1cccc(Cl)c1 [Example I-238, (1S,2S)-2-(3-chlorophenyl)-N-(4-(((6-cyclopropyl-8-(2-oxooxazolidin-3-yl)imidazo[1,2-a]pyridin-2-yl)methyl)amino)pyridin-2-yl)cyclopropane-1-carboxamide]
< 1 | 1500 to 10000 | Cc1cc(NCc2cn3cc(C4CC4)ccc3n2)cc(NC(=O)[C@H]2C[C@@H]2c2cccc(Cl)c2)n1 [Example 338, (1S,2S)-2-(3-chlorophenyl)-N-(4-(((6-cyclopropylimidazo[1,2-a]pyridin-2-yl)methyl)amino)-6-methylpyridin-2-yl)cyclopropane-1-carboxamide]
1 to 10 | 10000 to 48000 | O=C(Nc1cncc(NCc2cn3cc(C4CC4)ccc3n2)c1)[C@H]1C[C@@H]1c1cccc(Cl)c1 (racemic) [Example 574, rac-(1S*,2S*)-2-(3-chlorophenyl)-N-(5-(((6-cyclopropylimidazo[1,2-a]pyridin-2-yl)methyl)amino)pyridin-3-yl)cyclopropane-1-carboxamide]
< 1 | 400 to 1500 | O=C(Nc1cc(NCc2cn3cc(C4CC4)cc(N4CC(=O)N(CCO)C4=O)c3n2)ncn1)[C@H]1C[C@@H]1c1cccc(Cl)c1 [Example 463, (1S,2S)-2-(3-chlorophenyl)-N-(6-(((6-cyclopropyl-8-(3-(2-hydroxyethyl)-2,4-dioxoimidazolidin-1-yl)imidazo[1,2-a]pyridin-2-yl)methyl)amino)pyrimidin-4-yl)cyclopropane-1-carboxamide]
< 1 | 400 to 1500 | CN1CC2(C1)CN(c1cc(C3CC3)cn3cc(CNc4ccnc(NC(=O)[C@H]5C[C@@H]5c5cccc(Cl)c5)c4)nc13)C2 [Example 140, (1S,2S)-2-(3-chlorophenyl)-N-(4-(((6-cyclopropyl-8-(6-methyl-2,6-diazaspiro[3.3]heptan-2-yl)imidazo[1,2-a]pyridin-2-yl)methyl)amino)pyridin-2-yl)cyclopropane-1-carboxamide]
1 to 10 | 1500 to 10000 | COCC1CN(c2cc(C3CC3)cn3cc(CNc4cc(NC(=O)[C@H]5C[C@@H]5c5cccc(Cl)c5)ncn4)nc23)CCN1C (stereo partly drawn) [Example I-6, (1S,2S)-2-(3-chlorophenyl)-N-(6-(((6-cyclopropyl-8-(3-(methoxymethyl)-4-methylpiperazin-1-yl)imidazo[1,2-a]pyridin-2-yl)methyl)amino)pyrimidin-4-yl)cyclopropane-1-carboxamide]
